These results are taken from patent US20240251783A1, “COMPOSITIONS AND METHODS FOR LUNG PRESERVATION” (University Health Network, priority 2021, published 2024).

Assay [1] has as its system Human lung epithelial (BEAS-2B) cells. Kind of assay: Cell culture model simulating hypothermic lung preservation and warm reperfusion; MTS cell viability and phase contrast morphology. It is filed as cell-based. Conditions: 42 h CIT. On the procedure:
(§1) Human lung epithelial (BEAS-2B) cells or human pulmonary microvascular endothelial cells (HPMEC) were cultured to confluence at 37° C., 5% CO2 in DMEM (Gibco; Waltham MA) with 10% of fetal bovine serum (FBS, Gibco), or in M199 medium (Thermo Scientific, Waltham MA) with 20% of FBS, respectively. After cells reached confluence, medium was replaced with different testing solutions, and cells were switched to a chamber at 4° C. with 50% O2 to simulate hypothermic lung preservation. After different periods of cold ischemic time (CIT), cells were switched back to DMEM+10% FBS or M199+20% FBS at 37° C. with 5% CO2 for 4 h to simulate reperfusion. Cell morphology was recorded with phase contrast microscopy.
(§2) CellTiter 96® AQueous One Solution Cell Proliferation Assay (MTS) was used to determine effects of different solutions on cell viabilities. Cells were seeded in 96-well plates at 15,000 cells/100 μl/well, and incubated with serum containing culture medium as described above, at 37° C./5% CO2 overnight. After switching to different preservation solutions for various periods of CIT, and followed by 3 h simulated reperfusion, and then 20 μl of CellTiter 96@ AQueousOne Solution (Promega; Madison, WI) was added to each well. After additional 1 h incubation, optical density of each well was measured using a plate reader (Biotek Instrument Inc., Winooski, VT) set to 490 nm.

The subject of assay [2] is human pulmonary microvascular endothelial cells (HPMEC). The assay is described as follows: Cell culture model simulating hypothermic lung preservation and warm reperfusion; MTS cell viability. It is filed as cell-based. The following applies: 42 h CIT. On the procedure:
as §1, §2

As to dextran 40, the “effect of addition of dextran 40 on cell viability” value in assay [1] (50 mg/ml added to M199(p)) is “further significantly improved cell viability”; in assay [1] (50 mg/ml added to RPMI-1640(p)), “not further enhanced”; in assay [2] (50 mg/ml added to M199(p)), “further significantly improved cell viability”; in assay [2] (50 mg/ml added to RPMI-1640(p)), “not further enhanced”.
